One test relates to Cancer cells (KG-1). Briefly: Cytotoxicity assay, WST-1, KG-1. Particulars: Homo sapiens; KG-1 cells, 72 hours, WST-1. The format is cell-based. The protocol: To evaluate the effect of the compounds of the present disclosure on cancer cells, a cytotoxicity assay was conducted as follows.
Cancer cells (KG-1) were seeded at a concentration of 10,000 cells per well into a 96-well plate. Then, the cells were treated with predetermined concentrations of compounds of the Examples and comparative substances (comparative compounds 1, 2, 3). After 72 hours, the cells were incubated with WST-1 reagent for one hour. Then, absorbance was measured at 450 nm using a spectramax spectrophotometer to assess the degree of cancer cell apoptosis. The IC50 (μM) values were calculated using the measured values with the GraphPad Prism program and the measurements are summarized in Table 1.
In general terms: Tetrazolium assays rely on reduction of a dye to a coloured formazan, in cell work by metabolically active cells.
Broadly, the IC50 is the point on the concentration scale where inhibition reaches its midpoint. A lower IC50 goes with greater potency. Regarding `O=C1CCC(N2Cc3cc(CNC(=O)c4cc(-c5ccc(Cl)cc5Cl)[nH]n4)ccc3C2=O)C(=O)N1` (centres unmarked) [Compound 25, 5-(2,4-Dichlorophenyl)-N-((2-(2,6-dioxopiperidin-3-yl)-1-oxoisoindolin-5-yl)methyl)-1H-pyrazole-3-carboxamide], the IC50 lay within 0.0001 to 0.01 µM. For the compound `O=C1CCC(N2Cc3cc(CNC(=O)c4nc5ccc(Cl)cc5s4)ccc3C2=O)C(=O)N1` (centres unmarked) [Compound 26, 6-Chloro-N-((2-(2,6-dioxopiperidin-3-yl)-1-oxoisoindolin-5-yl)methyl)benzo[d]thiazole-2-carboxamide], the IC50 lay within 0.01 to 1 µM.

For the compound `O=C1CCC(N2Cc3cc(CNC(=O)c4n[nH]c(-c5cccc(Cl)c5)c4Br)ccc3C2=O)C(=O)N1` (centres unmarked) [Compound 27, 4-Bromo-3-(3-chlorophenyl)-N-((2-(2,6-dioxopiperidin-3-yl)-1-oxoisoindolin-5-yl)methyl)-1H-pyrazole-5-carboxamide], the IC50 fell in the range of 0.0001 to 0.01 µM. Still for that read-out and setting: then `O=C1CCC(N2Cc3cc(CNC(=O)c4cc(-c5cc(Cl)ccc5Cl)[nH]n4)ccc3C2=O)C(=O)N1` (centres unmarked) [Compound 28, 5-(2,5-Dichlorophenyl)-N-((2-(2,6-dioxopiperidin-3-yl)-1-oxoisoindolin-5-yl)methyl)-1H-pyrazole-3-carboxamide], with 0.0001 to 0.01 µM; and `Cc1ccc(-c2cc(C(=O)NCc3ccc4c(c3)CN(C3CCC(=O)NC3=O)C4=O)n[nH]2)c(C)c1` (centres unmarked) [Compound 29, 5-(2,4-Dimethylphenyl)-N-((2-(2,6-dioxopiperidin-3-yl)-1-oxoisoindolin-5-yl)methyl)-1H-pyrazole-3-carboxamide], with 0.0001 to 0.01 µM; and `O=C1CCC(N2Cc3cc(CNC(=O)c4cccc(-c5ccccc5)c4)ccc3C2=O)C(=O)N1` (centres unmarked) [Compound 30, N-((2-(2,6-Dioxopiperidin-3-yl)-1-oxoisoindolin-5-yl)methyl)-[1,1′-biphenyl]-3-carboxamide], with 10 to 50 µM. The same measure, in the same setting: then `Cc1ccnc(C(=O)NCc2ccc3c(c2)CN(C2CCC(=O)NC2=O)C3=O)c1` (centres unmarked) [Compound 31, N-((2-(2,6-Dioxopiperidin-3-yl)-1-oxoisoindolin-5-yl)methyl)-4-methylpicolinamide], with 10 to 50 µM. As for `O=C1CCC(N2Cc3cc(CNC(=O)c4n[nH]c5ccccc45)ccc3C2=O)C(=O)N1` (centres unmarked) [Compound 34, N-((2-(2,6-Dioxopiperidin-3-yl)-1-oxoisoindolin-5-yl)methyl)-1H-indazole-3-carboxamide], the 50% inhibitory concentration (IC50) fell in the range of 0.01 to 1 µM.

In the case of `Cn1cc(Br)cc1C(=O)NCc1ccc2c(c1)CN(C1CCC(=O)NC1=O)C2=O` (centres unmarked) [Compound 38, 4-Bromo-N-((2-(2,6-dioxopiperidin-3-yl)-1-oxoisoindolin-5-yl)methyl)-1-methyl-1H-pyrrole-2-carboxamide], the half-inhibitory concentration (IC50) lay within 1 to 10 µM.

Regarding `Cn1cc(-c2ccccc2)cc1C(=O)NCc1ccc2c(c1)CN(C1CCC(=O)NC1=O)C2=O` (centres unmarked) [Compound 39, N-((2-(2,6-Dioxopiperidin-3-yl)-1-oxoisoindolin-5-yl)methyl)-1-methyl-4-phenyl-1H-pyrrole-2-carboxamide], the IC50 was 0.0001 to 0.01 µM. As for `Cn1cc(-c2cccc(Cl)c2)cc1C(=O)NCc1ccc2c(c1)CN(C1CCC(=O)NC1=O)C2=O` (centres unmarked) [Compound 40, 4-(3-Chlorophenyl)-N-((2-(2,6-dioxopiperidin-3-yl)-1-oxoisoindolin-5-yl)methyl)-1-methyl-1H-pyrrole-2-carboxamide], the IC50 fell in the range of 0.0001 to 0.01 µM. `Cc1c(C(=O)NCc2ccc3c(c2)CN(C2CCC(=O)NC2=O)C3=O)nn(CC(C)C)c1-c1cccc(Cl)c1` (centres unmarked) [Compound 41, 5-(3-Chlorophenyl)-N-((2-(2,6-dioxopiperidin-3-yl)-1-oxoisoindolin-5-yl)methyl)-1-isobutyl-4-methyl-1H-pyrazole-3-carboxamide] came in with an IC50 of 0.0001 to 0.01 µM.

The same test, now with this note: monocyclic heteroaryl R1 and aryl R2 compared to bicyclic heteroaryl R1 (Compounds 8, 9, and 26).
For the compound `Cn1cc(-c2ccccc2)cc1C(=O)NCc1ccc2c(c1)CN(C1CCC(=O)NC1=O)C2=O` (centres unmarked) [Compound 39, N-((2-(2,6-Dioxopiperidin-3-yl)-1-oxoisoindolin-5-yl)methyl)-1-methyl-4-phenyl-1H-pyrrole-2-carboxamide], the “activity (in words)” value is given as “significantly more potent activity”. With `Cn1cc(-c2cccc(Cl)c2)cc1C(=O)NCc1ccc2c(c1)CN(C1CCC(=O)NC1=O)C2=O` (centres unmarked) [Compound 40, 4-(3-Chlorophenyl)-N-((2-(2,6-dioxopiperidin-3-yl)-1-oxoisoindolin-5-yl)methyl)-1-methyl-1H-pyrrole-2-carboxamide], the “activity (in words)” value is listed as “significantly more potent activity”.

Source of the values: patent US20250346575A1, “ISOINDOLINONE DERIVATIVE HAVING GLUTARIMIDE MOTHER NUCLEUS, AND USE THEREOF” (KOREA RESEARCH INSTITUTE OF CHEMICAL TECHNOLOGY, priority 2021, published 2025).
